Experiments:
[1] = system: primary human natural killer (NK) cells; conditions: cited from earlier work
[2] = system: primary human NK cells (effector) with MV-4-11 target cells; assay: Primary human NK cell apoptosis assay, annexin V staining and flow cytometry; type: cell-based; conditions: clinically-relevant concentration, morphine 25 ng/mL, two-hour incubation of effector cells; data only in FIG. 1
[3] = system: CAR-NK cells (effector) with MV-4-11 target cells; assay: CAR-NK cell apoptosis assay, annexin V staining and flow cytometry; type: cell-based, human; conditions: clinically-relevant concentration, morphine 25 ng/mL, two-hour incubation of effector cells; data only in FIG. 1

Row | Structure (SMILES) | primary human NK cell cytotoxicity after preincubation with opioid [1] | effect on primary human NK cell function (ability to induce apoptosis in MV-4-11 cells) [2] | effect on CAR-NK cell function (ability to induce apoptosis in MV-4-11 cells) [3]
1 | CN1CC[C@]23c4c5ccc(O)c4O[C@H]2[C@@H](O)C=C[C@H]3[C@H]1C5 [morphine] | reduced | functionally inhibited | functionally inhibited
2 | CCC(=O)C(CC(C)N(C)C)(c1ccccc1)c1ccccc1 (centres unmarked) [methadone] | reduced | – | –
3 | C[C@@H](NC(=O)[C@@H](N)Cc1ccc(O)cc1)C(=O)NCC(=O)N(C)[C@@H](Cc1ccccc1)C(=O)NCCO [DAMGO, [D-Ala2, N-Me-Phe4, Gly5-ol]-enkephalin] | reduced | – | –
